{"source": "patent US20230183187A1", "about": "“QUINAZOLINE COMPOUNDS AS INHIBITORS OF PREMATURE TERMINATION CODONS” (CENTRE NATIONAL DE LA RECHERCHE SCIENTIFIQUE, priority 2020, published 2023)", "key": {"TP53-R213X mRNA": {"tested_on": "TP53-R213X mRNA", "assay": "RT-qPCR of mutant p53 mRNA in HDQ-P1 cells", "assay_type": "cell-based, human", "details": "HDQ-P1, 48 hours; TLN68 80 μM, TLN309 40 μM; n=3", "description": "(§1) For the analysis of mRNA levels for p53 and its transcriptional target genes, Bax, the inventors extracted total RNA from HDQ-P1 cells that had or had not been treated with G418 (400 μM) or TLN68 (80 μM) for 48 hours (RNeasy Mini Kit, Qiagen). The RNA was treated with DNAse I (RNase-free DNase) and quantified with a Nanodrop spectrometer (ThermoScientific). The absence of RNA degradation was confirmed by agarose gel electrophoresis. The first-strand cDNA was synthesized from 2 μg of total RNA, with random primers and the SuperScript II Reverse Transcriptase (Invitrogen), as recommended by the manufacturer. Quantitative PCR was then carried out on equal amounts of the various cDNAs, with a CFX96 thermocycler (Biorad), and the accumulation of products was monitored with the intercalating dye FastStart Universal SYBRGreen Master (ROX) reagent (Roche). The inventors quantified mRNA levels relative to three reference mRNAs: RPL32, Hprt1 and HMBS. In each experiment, results are expressed relative to those for untreated cells, for which the value obtained was set to 1. Relative levels of gene expression were calculated at early stages of PCR, when the amplification was exponential and might, therefore, be correlated with the initial number of copies of the transcript. […] For the quantification of each mRNA, three independent experiments (from biological replicates) were performed in triplicate. […]"}, "HDQ-P1 cells": {"tested_on": "HDQ-P1 cells", "assay": "WST1 tetrazolium viability assay, HDQ-P1", "assay_type": "cell-based, human", "details": "HDQ-P1, 24 h, maximal dose used", "description": "The inventors tested the effect of TLN68 on viability of NIH3T3, HDQ-P1 and HeLa cell lines by using a tetrazolium salt which is cleaved only by metabolically active cells. Cells were treated or not with a range of TLN68 doses during 24 h and viability was measured."}, "nonsense mutation W1268X": {"tested_on": "nonsense mutation W1268X", "assay": "pAC99 dual reporter readthrough in HeLa cells, W1268X", "assay_type": "cell-based, human", "details": "24 hours", "description": "Different compounds of the invention have been tested for their ability to induce readthrough on the nonsense mutation W1268X or R213X in HeLa cells.\nTo this aim the inventors used the pAC99 dual reporter plasmid. This dual reporter is used to quantify stop-codon readthrough through the measurement of luciferase and beta-galactosidase (internal normalisation) activities. Readthrough levels for nonsense mutations were analysed in the presence or absence of tested molecules. Cells are seeded in a 6-well plate. The next day, cells are transfected with the reporter plasmid using the JetPei reagent (Invitrogen). The following day, they are rinsed with fresh medium, with or without readthrough inducers. Cells were harvested 24 hours later, with trypsin—EDTA (Invitrogen), lysed with Glo lysis buffer (Promega) and beta-galactosidase and luciferase activities were assayed as previously described. Readthrough efficiency was estimated by calculating the ratio of luciferase activity to beta-galactosidase activity obtained with the test construct, with normalisation against an in-frame control construct. At least five independent transfection experiments were performed for each assay."}, "Bax mRNA (target of p53)": {"tested_on": "Bax mRNA (target of p53)", "assay": "RT-qPCR of Bax mRNA in HDQ-P1 cells", "assay_type": "cell-based, human", "details": "HDQ-P1, TLN68 80 μM, 48 hours, n=3", "description": "as §1"}, "[1]": {"tested_on": "p53-R213X transcriptional activity", "assay": "TP53 protein activity assay (p53BS-luc reporter) in H1299 cells", "assay_type": "cell-based, human", "details": "H1299 cotransfected with pCMV-R213X, pCMVLacZ, 20 hours, TLN68 20, 50, 80 and 100 mM as printed", "description": "The inventors investigated the transcriptional activity of the p53 protein in H1299, a p53-null cell line. Cells were cotransfected, by the JetPei method, with the p53BS-luc reporter plasmid containing the firefly luciferase gene downstream from seven p53 binding sites, the pCMVLacZ and the pCMVp53R213X containing the p53 cDNA interrupted by the stop mutation R213X. TLN68 ([…]) was added to the medium just before transfection for a total of 20 hours of treatment. Protein extracts were then prepared and enzymatic activities were measured. Transfection with pCMVLacZ was used to normalise transfection efficiency, cell viability and protein extraction. At least six independent transfection experiments were performed for each set of conditions."}, "[2]": {"tested_on": "TP53 R213X nonsense mutation", "assay": "Dual reporter (lacZ/F-luc, pAC99) stop codon readthrough quantification, R213X, NIH3T3 cells", "assay_type": "cell-based, mouse", "details": "24 h, each drug separately or together", "text": "Complementary oligonucleotides corresponding to TP53 R213X nonsense mutations and 9 nucleotides on both sides are ligated into the pAC99 dual reporter plasmid, as previously described (Premature stop codons involved in muscular dystrophies show a broad spectrum of readthrough efficiencies in response to gentamicin treatment, Bidou et al, Gene Therapy 1 Apr. 2004, 11(7):619-627). This dual reporter is used to quantify stop-codon readthrough through the measurement of luciferase and beta-galactosidase (internal calibration) activities, as previously described (Stahl et al, Versatile vectors to study recoding: conservation of rules between yeast and mammalian cells. Nucleic Acids Res 1995; 23:1557-60). Readthrough levels for nonsense mutations were analysed in the presence or absence of tested molecules. Cells were seeded in a 6-well plate. The next day, cells are transfected with the reporter plasmid in the presence of JetPei reagent (Invitrogen). The following day, they are rinsed with fresh medium, with or without readthrough inducers. […] Readthrough efficiency was estimated by calculating the ratio of luciferase activity to beta-galactosidase activity obtained with the test construct, with normalisation against an in-frame control construct. […]"}}, "data": [{"smiles": "Cc1nc(NC(=N)N)nc2ccccc12", "note": "[TLN68]", "values": [{"measurement": "stabilisation of TP53-R213X mRNA relative to untreated", "setting": "TP53-R213X mRNA", "result": 6, "unit": "fold"}, {"measurement": "viable cells", "setting": "HDQ-P1 cells", "result": 70, "unit": "%"}, {"measurement": "Inducting factor of readthrough as compared to untreated cells (measured on nonsense mutation W1268X)", "setting": "nonsense mutation W1268X", "result": 9}, {"measurement": "induction of bax mRNA level relative to untreated", "setting": "Bax mRNA (target of p53)", "result": 3, "unit": "fold"}, {"measurement": "increase of the p53-dependent luciferase", "setting": "[1]", "result": 3.5, "unit": "fold"}, {"measurement": "readthrough level", "setting": "[2]", "result": 11, "unit": "%"}]}]}
